Measured values from BindingDB's records for doi:10.3109/14756366.2012.670806 (Jeju National University, 2013).
pIC50: −log10 of the molar value.

Molecular target: T1, Polyphenol oxidase 1 (White button mushroom, UniProt Q00024)
T1 sequence (Q00024 whole entry): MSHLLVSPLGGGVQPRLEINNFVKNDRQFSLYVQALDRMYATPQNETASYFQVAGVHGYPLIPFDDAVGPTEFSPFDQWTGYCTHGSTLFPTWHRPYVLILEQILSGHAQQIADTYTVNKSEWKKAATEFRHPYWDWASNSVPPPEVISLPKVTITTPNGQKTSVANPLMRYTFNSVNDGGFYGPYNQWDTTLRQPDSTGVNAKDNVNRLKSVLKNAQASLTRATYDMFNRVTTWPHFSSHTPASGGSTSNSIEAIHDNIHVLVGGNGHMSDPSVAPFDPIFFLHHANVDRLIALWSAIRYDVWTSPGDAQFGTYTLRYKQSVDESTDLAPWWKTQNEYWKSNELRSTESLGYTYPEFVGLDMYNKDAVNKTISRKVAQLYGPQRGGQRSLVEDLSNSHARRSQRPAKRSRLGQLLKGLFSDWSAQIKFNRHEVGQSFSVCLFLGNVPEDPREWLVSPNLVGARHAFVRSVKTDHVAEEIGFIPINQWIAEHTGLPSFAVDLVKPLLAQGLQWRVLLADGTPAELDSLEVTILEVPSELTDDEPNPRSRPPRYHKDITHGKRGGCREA
Assay: Tyrosinase Inhibition Assay
Details: pH 6.8; 37 °C
Protocol: Briefly, mushroom tyrosinase (1250 units/mL) and 2 mM L-tyrosine (0.07 mL) were added to a solution of phosphate buffer (0.1 M, pH 6.8, 0.09 mL) containing the test sample. The test mixture (0.2 mL) was incubated for 10 min at 37°C and the absorption due to the formation of dopachrome was monitored at 475 nm. The same mixture except for the plant extract was used as a control. Arbutin (hydroquinone-O-β-glucopyranoside) was used as a positive control. Each treatment was replicated three times.

| pIC50 | Compound |
| --- | --- |
| 3.49 | OC[C@H]1O[C@@H](Oc2ccc(O)cc2)[C@H](O)[C@@H](O)[C@@H]1O [4-hydroxyphenyl beta-D-glucopyranoside] |
| 4.17 | CC1OC(Oc2c(-c3ccc(O)cc3)oc3cc(O)cc(O)c3c2=O)C(OC(=O)/C=C/c2ccc(O)cc2)C(OC(=O)/C=C/c2ccc(O)cc2)C1O (stereo not drawn) [Neolitsea aciculata extract, 5] |
| 4.10 | CC1OC(Oc2c(-c3ccc(O)cc3)oc3cc(O)cc(O)c3c2=O)C(OC(=O)/C=C/c2ccc(O)cc2)C(O)C1O (stereo not drawn) [Neolitsea aciculata extract, 6] |
